Calls of active or inactive are those of the source.
Columns and labels:
[1] = target: NAD-dependent protein deacylase sirtuin-5, mitochondrial (Homo sapiens, UniProt Q9NXA8); assay: sirtuin-5 deacylation blockers, concentration series – biochemical, fluorescence imaging, cherry-pick, set 5, dose response (AID 720591);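 further: desuccinylation of succinyl peptide AMC substrate read as fluorescence after trypsin release; potency of inhibitors that lower fluorescence and may act on trypsin instead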
[2] = viability loss in THP-1 monocytes – THP-1 cells, cytotoxicity control for Vif-APOBEC3G degradation inhibitor project, dose response (AID 1117359); assay type: functional; details: THP-1
[3] = A549 lung cell viability reduction – CellTiter-Glo luminescence, cherry-pick, cytotoxicity control, dose response (AID 743484); assay type: functional, cell-based
[4] = microbe, parasite or virus in culture; assay type: functional; details: Mycobacterium tuberculosis
[5] = Luminescence-based dose response cell-based high throughput screening assay for cytotoxic compounds using the IEC-6 intestinal epithelial cell line. [Related pubchem assays: 1858 (Summary AID.), 1825 (Counterscreen.), 1907 (Confirmation screen.)]; assay type: functional
[6] = blockers of HIV-1 envelope-mediated cell-cell fusion – cherry-pick, dose response (AID 652057); assay type: functional, cell-based
[7] = viability loss in CEM21 cells – cell-based, CellTiter-Glo luminescence, cherry-picked, cytotoxicity control for viral fusion inhibitor project, dose response (AID 652042); assay type: functional;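 further: potency for signal decrease meaning cytotoxicity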
[8] = blockers of HIV-1 ZM109 envelope-driven cell-cell fusion – HeLa effector, CEM target cells, luciferase, cherry-pick, dose response (AID 652058); assay type: functional, cell-based;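 further: luciferase signal from HIV-1 Env mediated cell-cell fusion of effector and target cells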
[9] = off-target signal loss in HeLa-CEM21 co-culture – HeLa F-luc CTL cells, cherry-picked, counter-screen for HIV-1 Env fusion inhibitor project, dose response (AID 652040); assay type: functional, cell-based;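 further: potency for signal decrease marking cytotoxic or nonspecific inhibition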
[10] = HIV-1 AD8 envelope cell-cell fusion blockers – cherry-pick, dose response (AID 652062); assay type: functional, cell-based;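 further: luciferase signal from cell-cell fusion driven by HIV-1 clade B AD8 Env; potency is for inhibitors of fusion seen as a drop in luminescence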
[11] = target: RNA-editing ligase 1, mitochondrial (Trypanosoma brucei brucei, UniProt P86926); assay: inhibition of trypanosome RNA editing ligase – biochemical, fluorescence, Trypanosoma brucei, dose response (AID 1117295); assay type: functional
HEK293 [12] = assay: cells; details: Homo sapiens
HEK293 [13] = assay: cells; details: Homo sapiens; remark: listed apart in the source
[14] = growth inhibition of yeast DHODH-expressing 3D7 parasites – SYBR Green, dry powder samples, dose response (AID 1159570); assay type: functional, cell-based;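 further: parasite growth measured after 72 hours of compound exposure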
[15] = toxicity to human HepG2 hepatoma cells – cell-based, plate reader, dry powder samples, cytotoxicity control, dose response (AID 1159569); assay type: functional;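 further: inhibitor potency with signal falling toward the positive control level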
[16] = Dd2 parasite growth inhibition in erythrocytes – SYBR Green, dry powder samples, set 9, dose response (AID 1159568); assay type: functional, cell-based
[17] = P. falciparum Dd2 growth inhibitors, dose response, SYBR Green, cherry-picked samples (AID 1159567); assay type: functional, cell-based
[18] = Dd2 malaria parasite growth inhibition potency – SYBR Green, dry powder samples, dose response (AID 1159566); assay type: functional, cell-based;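 further: potency for growth inhibition with lower SYBR green DNA signal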
[19] = growth inhibition of PfATP4-mutant resistant parasites – NITD609-resistant line, SYBR Green, dry powder, dose response (AID 1159571); assay type: functional, cell-based;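 further: parasites synchronized at ring stage by sorbitol before testing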
[20] = target: T1, Histone-lysine N-methyltransferase NSD2 (Homo sapiens, UniProt O96028); assay type: biochemical
T1 sequence (O96028 whole entry): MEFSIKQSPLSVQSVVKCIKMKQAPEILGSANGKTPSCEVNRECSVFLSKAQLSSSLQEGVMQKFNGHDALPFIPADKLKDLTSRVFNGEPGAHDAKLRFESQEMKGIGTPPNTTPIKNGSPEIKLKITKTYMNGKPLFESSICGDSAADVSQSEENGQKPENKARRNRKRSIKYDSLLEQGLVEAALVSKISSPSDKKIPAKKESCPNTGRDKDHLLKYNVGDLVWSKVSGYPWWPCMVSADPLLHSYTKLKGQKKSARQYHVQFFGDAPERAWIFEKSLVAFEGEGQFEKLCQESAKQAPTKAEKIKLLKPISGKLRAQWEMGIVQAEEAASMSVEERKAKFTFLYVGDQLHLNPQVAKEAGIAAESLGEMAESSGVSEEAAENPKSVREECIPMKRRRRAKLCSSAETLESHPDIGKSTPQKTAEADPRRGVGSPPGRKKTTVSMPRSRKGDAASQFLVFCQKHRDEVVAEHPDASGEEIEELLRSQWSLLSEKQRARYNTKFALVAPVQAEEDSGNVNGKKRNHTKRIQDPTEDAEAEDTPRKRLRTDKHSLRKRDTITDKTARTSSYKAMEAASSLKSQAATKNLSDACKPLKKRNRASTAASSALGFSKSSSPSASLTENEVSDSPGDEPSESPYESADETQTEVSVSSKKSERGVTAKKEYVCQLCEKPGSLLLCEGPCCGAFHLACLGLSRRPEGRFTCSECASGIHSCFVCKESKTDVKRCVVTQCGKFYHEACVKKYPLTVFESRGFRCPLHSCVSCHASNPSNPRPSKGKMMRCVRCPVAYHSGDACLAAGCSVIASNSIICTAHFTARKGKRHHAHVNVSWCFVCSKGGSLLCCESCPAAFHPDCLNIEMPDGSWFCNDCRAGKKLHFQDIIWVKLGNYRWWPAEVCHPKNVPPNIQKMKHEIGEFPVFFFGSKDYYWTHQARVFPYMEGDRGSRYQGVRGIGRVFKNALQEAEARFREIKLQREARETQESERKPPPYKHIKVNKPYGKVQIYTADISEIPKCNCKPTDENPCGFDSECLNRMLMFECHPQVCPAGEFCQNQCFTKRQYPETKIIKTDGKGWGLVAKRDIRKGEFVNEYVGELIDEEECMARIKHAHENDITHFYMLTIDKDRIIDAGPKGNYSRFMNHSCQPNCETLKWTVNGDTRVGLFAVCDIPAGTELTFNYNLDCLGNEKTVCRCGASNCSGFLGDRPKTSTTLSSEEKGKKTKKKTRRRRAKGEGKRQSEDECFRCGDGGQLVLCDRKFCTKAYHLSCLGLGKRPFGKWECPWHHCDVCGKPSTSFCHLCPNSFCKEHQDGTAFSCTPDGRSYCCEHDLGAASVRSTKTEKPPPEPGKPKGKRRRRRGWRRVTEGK

[21] = target: 1-phosphatidylinositol 4,5-bisphosphate phosphodiesterase gamma-1 (Homo sapiens, UniProt P19174); assay: Counterscreen for inhibitors of phospholipase C isozymes (PLC-B3): Fluorescence-based biochemical high throughput dose response assay to identify inhibitors of phospholipase C isozymes (PLC-gamma1).
[22] = target: 1-phosphatidylinositol 4,5-bisphosphate phosphodiesterase beta-3 (Homo sapiens, UniProt Q01970); assay: Fluorescence-based biochemical high throughput dose response assay to identify inhibitors of phospholipase C isozymes (PLC-B3).
[23] = decrease of insulin promoter-GFP reporter – imaging, high-content screening, mouse beta cells (AID 1628); assay type: functional; details: MIN6
[24] = MIN6 cell viability loss – mouse insulinoma, cytotoxicity control, dose response (AID 2122); assay type: functional;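 further: confirmatory high-throughput counterscreen run to flag cytotoxic compounds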
[25] = Trypanosoma cruzi growth suppression in host cells – NIH3T3 host cells, beta-gal luminescence, confirmation (AID 2044); assay type: functional, cell-based;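 further: intracellular parasites grown in NIH/3T3 mouse fibroblasts as host cells; luminescent beta-galactosidase reporter signal from transgenic T. cruzi replicating inside host cells; inhibitors lower the luminescence signal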
[26] = NIH3T3 cell viability loss – ATP luminescence, mouse fibroblasts, counter-screen, dose response (AID 2010); assay type: functional, cell-based;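 further: cells exposed to compound for about 90 hours before reading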
[27] = toxicity toward HepG2 liver cells – cell-based, plate reader, cherry-pick, antagonist series, cytotoxicity control, dose response (AID 743416); assay type: functional
[28] = blockers of bursicon-stimulated LGR2 cAMP reporter – cell-based, HEK293, CRE-luciferase reporter, cherry pick, set 2, dose response (AID 743343); assay type: functional;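 further: transfected cells were stimulated with diluted bursicon conditioned medium after compound addition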
[29] = blockade of melanocortin 4 receptor signaling – cell-based, plate reader, cherry pick, counter-screen for LGR2 antagonist project, dose response (AID 743444); assay type: functional;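 further: transfected HEK 293 cells stimulated with alpha-MSH peptide; potency of inhibitors of the alpha-MSH evoked signal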
[30] = viability loss in HEK293 cells – cell-based, plate reader, cherry-picked samples, cytotoxicity control, dose response (AID 743446); assay type: functional
[31] = viability loss in Vero cells – cytotoxicity control for Vif-APOBEC3G degradation inhibitor project, dose response (AID 1117358); assay type: functional; details: Vero
[32] = reduction of Shn3 3'UTR-driven luciferase in osteoblasts – cell-based, Clone20 osteoblasts, firefly luciferase, cherry-picked, dose response (AID 624132); assay type: functional;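 further: firefly luciferase luminescence from reporter carrying the Shn3 3'UTR in osteoblasts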
[33] = Shn3 3'UTR reporter signal decrease – cell-based, Clone20 osteoblasts, firefly luciferase, cherry-pick, set 2, Schnurri-3 inhibitor project, dose response (AID 720490); assay type: functional;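 further: actives lower the luminescence signal as inhibitors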
[34] = EF1alpha-driven Renilla reporter with control 3'UTR suppression – Clone20-Shn3RL cells, dual-Glo, cherry-pick, set 2, counter-screen for Shn3 3'UTR targeting project, dose response (AID 720724); assay type: functional, cell-based; details: Dual-Go Shn3RL

Chain of NAD-dependent protein deacylase sirtuin-5, mitochondrial (Q9NXA8 whole entry): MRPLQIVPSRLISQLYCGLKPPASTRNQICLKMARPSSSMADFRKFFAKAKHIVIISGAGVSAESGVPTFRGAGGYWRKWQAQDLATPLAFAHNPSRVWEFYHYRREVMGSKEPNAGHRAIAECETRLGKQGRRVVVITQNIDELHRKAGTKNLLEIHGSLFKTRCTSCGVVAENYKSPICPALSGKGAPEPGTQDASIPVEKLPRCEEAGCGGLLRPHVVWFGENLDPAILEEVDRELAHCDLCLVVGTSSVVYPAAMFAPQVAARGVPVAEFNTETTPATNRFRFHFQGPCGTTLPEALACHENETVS
Chain of 1-phosphatidylinositol 4,5-bisphosphate phosphodiesterase gamma-1 (P19174 whole entry): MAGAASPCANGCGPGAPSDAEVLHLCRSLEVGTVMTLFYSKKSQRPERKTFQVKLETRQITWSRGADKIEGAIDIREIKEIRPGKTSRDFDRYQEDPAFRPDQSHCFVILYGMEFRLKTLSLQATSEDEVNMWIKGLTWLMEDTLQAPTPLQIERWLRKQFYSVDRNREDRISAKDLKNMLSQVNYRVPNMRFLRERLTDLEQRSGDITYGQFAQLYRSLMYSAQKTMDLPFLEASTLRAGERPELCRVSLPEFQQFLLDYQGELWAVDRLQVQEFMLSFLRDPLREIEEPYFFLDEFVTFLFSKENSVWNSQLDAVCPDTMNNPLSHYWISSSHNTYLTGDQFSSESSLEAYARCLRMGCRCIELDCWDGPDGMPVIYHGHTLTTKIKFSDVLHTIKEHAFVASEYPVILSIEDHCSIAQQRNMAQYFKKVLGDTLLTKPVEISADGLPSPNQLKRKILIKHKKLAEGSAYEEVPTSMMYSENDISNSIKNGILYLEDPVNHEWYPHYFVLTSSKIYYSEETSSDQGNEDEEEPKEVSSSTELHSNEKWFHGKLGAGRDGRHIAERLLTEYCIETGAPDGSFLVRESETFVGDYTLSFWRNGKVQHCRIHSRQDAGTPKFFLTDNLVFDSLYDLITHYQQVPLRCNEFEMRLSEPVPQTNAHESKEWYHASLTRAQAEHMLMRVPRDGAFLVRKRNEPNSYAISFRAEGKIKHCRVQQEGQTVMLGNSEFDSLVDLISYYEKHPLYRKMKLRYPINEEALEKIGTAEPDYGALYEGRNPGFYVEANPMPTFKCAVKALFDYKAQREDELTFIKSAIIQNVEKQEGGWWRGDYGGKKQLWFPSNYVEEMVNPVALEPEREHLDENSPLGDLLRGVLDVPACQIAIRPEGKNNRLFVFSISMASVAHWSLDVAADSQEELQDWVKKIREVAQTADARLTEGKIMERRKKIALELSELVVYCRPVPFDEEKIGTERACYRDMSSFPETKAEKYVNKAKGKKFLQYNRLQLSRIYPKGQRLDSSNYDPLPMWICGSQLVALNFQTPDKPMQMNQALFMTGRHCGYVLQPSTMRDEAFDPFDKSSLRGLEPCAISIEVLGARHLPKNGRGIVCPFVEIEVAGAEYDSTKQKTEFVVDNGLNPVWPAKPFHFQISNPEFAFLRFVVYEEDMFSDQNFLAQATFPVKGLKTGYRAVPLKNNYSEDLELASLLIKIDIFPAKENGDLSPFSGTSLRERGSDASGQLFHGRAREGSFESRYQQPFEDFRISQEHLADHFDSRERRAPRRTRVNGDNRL
Chain of 1-phosphatidylinositol 4,5-bisphosphate phosphodiesterase beta-3 (Q01970 whole entry): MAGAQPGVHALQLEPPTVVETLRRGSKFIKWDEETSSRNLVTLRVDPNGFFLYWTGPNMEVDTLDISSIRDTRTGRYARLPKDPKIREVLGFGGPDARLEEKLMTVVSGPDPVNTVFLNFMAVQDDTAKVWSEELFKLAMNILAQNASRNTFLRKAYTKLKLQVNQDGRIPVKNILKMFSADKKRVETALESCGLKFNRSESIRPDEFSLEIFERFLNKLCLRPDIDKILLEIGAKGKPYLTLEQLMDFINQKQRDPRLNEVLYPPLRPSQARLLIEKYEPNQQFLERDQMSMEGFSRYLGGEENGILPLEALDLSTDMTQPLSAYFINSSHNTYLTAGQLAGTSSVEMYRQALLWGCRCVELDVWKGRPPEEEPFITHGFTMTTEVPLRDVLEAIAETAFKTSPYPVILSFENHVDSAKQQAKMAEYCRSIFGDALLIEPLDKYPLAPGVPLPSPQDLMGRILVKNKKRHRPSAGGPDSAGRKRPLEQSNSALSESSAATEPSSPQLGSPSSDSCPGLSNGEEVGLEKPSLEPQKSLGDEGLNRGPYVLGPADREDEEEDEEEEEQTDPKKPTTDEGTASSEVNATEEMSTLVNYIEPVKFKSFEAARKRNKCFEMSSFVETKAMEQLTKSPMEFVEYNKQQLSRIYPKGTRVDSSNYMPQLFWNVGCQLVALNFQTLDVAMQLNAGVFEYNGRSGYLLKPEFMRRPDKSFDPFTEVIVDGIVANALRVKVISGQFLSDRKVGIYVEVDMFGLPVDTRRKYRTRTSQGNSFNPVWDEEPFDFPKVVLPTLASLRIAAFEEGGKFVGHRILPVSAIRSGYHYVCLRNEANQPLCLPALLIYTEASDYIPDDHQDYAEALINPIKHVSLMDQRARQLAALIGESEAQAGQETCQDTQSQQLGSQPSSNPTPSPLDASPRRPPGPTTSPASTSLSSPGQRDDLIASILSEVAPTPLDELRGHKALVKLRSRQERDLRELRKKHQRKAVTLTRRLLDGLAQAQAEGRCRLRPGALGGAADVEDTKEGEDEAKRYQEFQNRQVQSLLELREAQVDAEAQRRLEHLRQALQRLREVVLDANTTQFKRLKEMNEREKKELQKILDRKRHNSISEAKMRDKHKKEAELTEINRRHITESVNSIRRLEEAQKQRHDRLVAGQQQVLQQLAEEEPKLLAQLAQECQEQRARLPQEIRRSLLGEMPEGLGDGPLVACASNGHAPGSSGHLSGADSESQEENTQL
Chain of RNA-editing ligase 1, mitochondrial (P86926 whole entry): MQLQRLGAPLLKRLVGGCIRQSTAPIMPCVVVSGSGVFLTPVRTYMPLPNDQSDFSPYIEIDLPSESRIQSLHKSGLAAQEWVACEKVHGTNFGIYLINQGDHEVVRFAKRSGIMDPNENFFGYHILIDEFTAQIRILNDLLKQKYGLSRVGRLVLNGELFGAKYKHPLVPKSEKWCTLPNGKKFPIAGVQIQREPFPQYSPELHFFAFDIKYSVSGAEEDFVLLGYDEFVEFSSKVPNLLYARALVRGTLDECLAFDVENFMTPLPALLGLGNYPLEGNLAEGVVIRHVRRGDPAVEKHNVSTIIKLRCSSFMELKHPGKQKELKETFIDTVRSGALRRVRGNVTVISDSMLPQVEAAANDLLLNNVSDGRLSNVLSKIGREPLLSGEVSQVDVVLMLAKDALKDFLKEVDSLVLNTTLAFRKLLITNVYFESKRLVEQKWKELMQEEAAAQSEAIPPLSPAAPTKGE

What does the source list for `CCOC(=O)C1(CCOC)CCN(Cc2cnc(-c3cccc(C)c3)nc2)CC1`?
AC50 [1]: > 30 µM (inactive); CC50 [2]: > 40 µM (active)

Which AC50 [3] does the source give for `CSc1nc(N)nc(SC2C=CCCC2)c1C#N` (centres undefined) here?
The AC50 was > 52 µM (inactive).

For `CC(C)Cc1ccc(C(C)C(=N)NCCc2ccccc2)cc1` (centres undefined), which CC50 [4] is on record?
The CC50 was 12.1 µM (active).

What about the IC50 [5] of the same compound?
The IC50 was 3.3 µM (active).

What about the AC50 [6] of the same compound?
The AC50 was 2.78 µM (active).

What about the AC50 [7] of the same compound?
Its AC50 is 14.3 µM (active).

And the AC50 [8]?
Its AC50 is 4.62 µM (active).

What about the AC50 [9] of the same compound?
The AC50 was 7.77 µM (active).

And the AC50 [10]?
The AC50 was 21.6 µM (active).

And the IC50 [11]?
The IC50 was > 96.6 µM (inactive).

What about the EC50 (HEK293 [12]) of the same compound?
Its EC50 is > 59.7 µM (inactive).

What about the EC50 (HEK293 [13]) of the same compound?
The EC50 was > 59.7 µM (inactive).

For `CCCNC(=O)N1[C@H](C#N)[C@H](c2ccc(-c3ccccc3F)cc2)[C@@H]1CO`, which AC50 [14] is on record?
The AC50 was 6.61 µM (active).

And the AC50 [15]?
Its AC50 is 1.6 µM (active).

What about the AC50 [16] of the same compound?
The AC50 was 0.608 µM (active).

What about the AC50 [17] of the same compound?
Its AC50 is 0.522 µM (active).

What about the AC50 [18] of the same compound?
Its AC50 is 0.377 µM (active).

What about the AC50 [19] of the same compound?
The AC50 was 0.511 µM (active).

Which results are given for `O=C(CCCN1C(=O)/C(=C/c2ccco2)SC1=S)Nc1cccc(C(=O)O)c1`?
AC50 [20]: > 20 µM (inactive); IC50 [21]: > 122 µM (inactive); IC50 [22]: > 122 µM (inactive)

With `Cc1cc(C)c(Cc2c(C)nc3c(C(=O)NCc4ccco4)cnn3c2C)c(C)c1` as the compound, how does the IC50 [23] read?
Its IC50 is 1.51 µM (active).

What about the IC50 [24] of the same compound?
Its IC50 is 1.42 µM (active).

What about the EC50 [25] of the same compound?
The EC50 was 2.67 µM (active).

What about the EC50 [26] of the same compound?
Its EC50 is > 60 µM (not active).

And the AC50 [27]?
The AC50 was 32.9 µM (active).

What about the AC50 [28] of the same compound?
The AC50 was 19.9 µM (active).

And the AC50 [29]?
The AC50 was 55.6 µM (active).

What about the AC50 [30] of the same compound?
The AC50 was 50 µM (active).

And the CC50 [31]?
Its CC50 is > 40 µM (active).

Which results are given for `Cc1ccc(CNC(=O)CSc2c3c(nc4ccc(Cl)cc24)CCCC3)o1`?
AC50 [32]: 5.98 µM (active); AC50 [33]: 10.7 µM (active); AC50 [34]: 37.6 µM (active)
